Experimental data published in paper PMC9776540, “Therapeutic Potential of a Water-Soluble Silver-Diclofenac Coordination Polymer on 3D Pancreatic Cancer Spheroids” (Journal of Medicinal Chemistry, 2022).

What was measured:
PANC-1 cells [1] = conditions: PANC-1, 1 at IC50, others at molar ratio 1:1:1, 72 h after treatment
Protocol: (§1) MCF7 cell line (human breast adenocarcinoma, morphology: epithelial-like, ATCC: HTB-22), A549 cell […]
(§2) keratinocyte, morphology: epidermal, CSL Cell Lines Service GmbH); were cultured in Dulbecco’s Modified Eagle’s Medium (DMEM, Corning) with phenol red, supplemented with 10% fetal bovine serum (FBS) and with 1% streptomycin/penicillin. […]
(§3) from metastatic site: brain, ATCC: HTB-81) and MCR-5 cell line (primary line of human pulmonary […]
(§4) 10% fetal bovine serum (FBS). Cultures were incubated at 37 °C under a humidified atmosphere containing 5% CO2. Cells were transferred using a solution containing 0.05% trypsin and 0.5 mM EDTA.
All media and other ingredients were purchased from ALAB, Poland. […]
Acridine Orange (OA) and Propidium Iodide PI Staining
AO is a nucleic acid-binding fluorophore that is cell membrane permeable and suitable for selective staining of nucleated living cells. PI is a nucleic acid-binding dye that is impermeable to live cells and suitable for staining dead or dying nucleated cells. All live, nucleated cells fluoresce green due to AO, and dead, nucleated cells are stained with both AO and PI and fluoresce red. For analysis of 1-induced

DU-145 [2] = assay: MTT survival test, surviving fraction (Table S3); type: cell-based, human
Protocol: (§5) 24, and 72 h. After each incubation time, the cells were washed with PBS. Then, fresh medium (supplemented with 10% FSB) was added, and the cells were incubated under standard conditions for another 24 h (6h + 24h, 24h + 24h, 72h + 24h). After this time, the MTT survival test was done. Surviving fraction given in % was estimated with relation to untreated cells. In the case of 6h + 24h and 24h + 24h approaches, the cells were seeded at 10 000 cells per well, while in the case of 72h + 24h at […]

PANC-1 [3] = assay: MTT survival test, surviving fraction (Table S3); type: cell-based, human
Protocol: as §5

MCF-7 = assay: MTT survival test, surviving fraction (Table S3); type: cell-based, human
Protocol: as §5

A549 [4] = assay: MTT survival test, surviving fraction (Table S3); type: cell-based, human
Protocol: as §5

HaCat [5] = assay: MTT survival test, surviving fraction (Table S3); type: cell-based, human
Protocol: as §5

PANC-1 cells [6] = assay: Mitochondrial membrane potential, JC-10 assay; type: cell-based, human; conditions: PANC-1, 4 h, 1 at IC50, others at molar ratio 1:1:1
Protocol: As an important indicator of mitochondrial dysfunction, the variation in mitochondrial membrane potential was monitored by the JC-10 probe (Figure 6C) aiming to understand the importance of mitochondrial disorder during the cancer cell death induced by 1.
Detection of Mitochondrial Membrane Potential (Δψ)
Mitochondrial membrane potential (MMP) depletion was determined by JC-10 Assay (Life
Technologies, USA). […] After 24h
ciprofloxacin (10 µg/mL) as positive and negative control, respectively. After that, cells were incubated
for 4 h at standard condition (37 °C, 5% CO2). Then, they were washed twice with PBS buffer and
incubated with JC-10 for 1 h. Afterwards, emission was measured at two different excitation
wavelengths ( exc = 540 nm,  em = 570 nm) and ( exc = 485 nm,  em = 530 nm). Results are presented as
the intensity ratio of red to green emission (mean + S.D.).

pBR322 plasmid = assay: DNA strand break analysis, agarose gel electrophoresis; type: biochemical; conditions: pBR322, 24 h, even at high concentration (500 μM)
Protocol: Then, the interaction between DNA and diclofenac, PTA, or 1 was evaluated by the gel electrophoresis of pBR322 plasmid to determine an ability to cause double- and/or single-strand DNA damages (Figure 6D). The double-strand damage may result in the appearance of different forms of DNA (linear form III and relaxed form II), which can be quantified by densitometry analysis (Figure 6E).
DNA Strand Break Analysis
The ability of 1, PTA and diclofenac to induce single- or double-strand breaks in plasmid DNA was tested
with the pBR322 plasmid (c = 0.5 mg/mL). All compounds were dissolved in water (c = 1 µM-500 µM).
After 1 h incubation at 37 °C, the reaction mixtures (20 μL) were mixed with 3 μL of loading buffer
(bromophenol blue in 30% glycerol) and loaded on 1% agarose gels, containing EB, in TBE buffer (90
mM Tris–borate, 20 mM EDTA, pH = 8.0). Gel electrophoresis was performed at a constant voltage of
100 V (4 V/cm) for 60 min. The gel was photographed and processed with a Digital Imaging System
(Syngen Biotech). For the densitometric analysis the UltraQuant 6.0 program was used.

DU-145 [7] = assay: MTT cytotoxicity assay (IC50); type: cell-based, human; conditions: Homo sapiens, DU-145, 72 h
Protocol: as §1, §2, §3, §4
(§6) All media and other ingredients were purchased from ALAB, Poland.
(§7) Cytotoxicity was assessed by MTT assay performed according the protocols described elsewhere.S1 In brief, 1×10^4 cells per well, seeded in 96-well flat bottom microtiter plate, were incubated with the tested compounds (in the appropriate media) at various range of concentrations for 24 h. After that time, solutions of compounds were washed out, cells were washed three times with PBS and fresh medium was applied. After next 72 h cell viability was determined using the Hill equation (Origin 9.0) with regard to the untreated cells (control), where y0 – untreated cell control (which was set to 100% viability), y100 – a lysis control (where the cells were treated with 0.5% triton X-100 was set to 0% […]
(§8) [c] at which the viability of the cells reaches 50%, H – the Hill coefficient (describing cooperativity):
(§9) Each compound concentration was tested in five replicates and repeated at least three times.
(§10) Determined values of IC50 are given as mean + S.D. (Standard Deviation).
(§11) Cisplatin was tested as a reference anticancer drug. […]

PANC-1 [8] = assay: MTT cytotoxicity assay (IC50); type: cell-based, human; conditions: Homo sapiens, PANC-1, 72 h
Protocol: as §1, §2, §3, §4, §6, §7, §8, §9, §10, §11

MRC5 = assay: MTT cytotoxicity assay (IC50); type: cell-based, human; conditions: Homo sapiens, MRC5, 72 h
Protocol: as §1, §2, §3, §4, §6, §7, §8, §9, §10, §11

MCF7 = assay: MTT cytotoxicity assay (IC50); type: cell-based, human; conditions: Homo sapiens, MCF7, 72 h
Protocol: as §1, §2, §3, §4, §6, §7, §8, §9, §10, §11

A549 [9] = assay: MTT cytotoxicity assay (IC50); type: cell-based, human; conditions: Homo sapiens, A549, 72 h
Protocol: as §1, §2, §3, §4, §6, §7, §8, §9, §10, §11

HaCat [10] = assay: MTT cytotoxicity assay (IC50); type: cell-based, human; conditions: Homo sapiens, HaCaT, 72 h
Protocol: as §1, §2, §3, §4, §6, §7, §8, §9, §10, §11

## C1N2CN3CN1CP(C2)C3 [PTA, 1,3,5-triaza-7-phosphaadamantane]
PANC-1 cells [1]
  cytotoxicity seen by AO/PI staining: did not induce visible cytotoxicity
DU-145 [2]; Du-145, 6h + 24h, dil. 10 000x (stocks: diclofenac 0.918, PTA 0.483, AgNO3 0.326 mg/mL)
  surviving fraction: 106.9 ± 9.2%
DU-145 [2]; Du-145, 6h + 24h, dil. 100x (stocks: diclofenac 0.918, PTA 0.483, AgNO3 0.326 mg/mL)
  surviving fraction: 78.4 ± 11.8%
DU-145 [2]; Du-145, 6h + 24h, dil. 1000x (stocks: diclofenac 0.918, PTA 0.483, AgNO3 0.326 mg/mL)
  surviving fraction: 89.3 ± 8.8%
DU-145 [2]; Du-145, 24h + 24h, dil. 10 000x (stocks: diclofenac 0.918, PTA 0.483, AgNO3 0.326 mg/mL)
  surviving fraction: 99.2 ± 7.2%
DU-145 [2]; Du-145, 24h + 24h, dil. 100x (stocks: diclofenac 0.918, PTA 0.483, AgNO3 0.326 mg/mL)
  surviving fraction: 73.8 ± 12.6%
DU-145 [2]; Du-145, 24h + 24h, dil. 1000x (stocks: diclofenac 0.918, PTA 0.483, AgNO3 0.326 mg/mL)
  surviving fraction: 89.2 ± 5.8%
DU-145 [2]; Du-145, 72h + 24h, dil. 10 000x (stocks: diclofenac 0.918, PTA 0.483, AgNO3 0.326 mg/mL)
  surviving fraction: 101.2 ± 12.4%
DU-145 [2]; Du-145, 72h + 24h, dil. 100x (stocks: diclofenac 0.918, PTA 0.483, AgNO3 0.326 mg/mL)
  surviving fraction: 62.3 ± 8.7%
DU-145 [2]; Du-145, 72h + 24h, dil. 1000x (stocks: diclofenac 0.918, PTA 0.483, AgNO3 0.326 mg/mL)
  surviving fraction: 84.2 ± 8.2%
PANC-1 [3]; PANC-1, 6h + 24h, dil. 10 000x (stocks: diclofenac 0.918, PTA 0.483, AgNO3 0.326 mg/mL)
  surviving fraction: 89.7 ± 12.5%
PANC-1 [3]; PANC-1, 6h + 24h, dil. 100x (stocks: diclofenac 0.918, PTA 0.483, AgNO3 0.326 mg/mL)
  surviving fraction: 74.7 ± 9.8%
PANC-1 [3]; PANC-1, 6h + 24h, dil. 1000x (stocks: diclofenac 0.918, PTA 0.483, AgNO3 0.326 mg/mL)
  surviving fraction: 86.5 ± 6.4%
PANC-1 [3]; PANC-1, 24h + 24h, dil. 10 000x (stocks: diclofenac 0.918, PTA 0.483, AgNO3 0.326 mg/mL)
  surviving fraction: 107.5 ± 6.8%
PANC-1 [3]; PANC-1, 24h + 24h, dil. 100x (stocks: diclofenac 0.918, PTA 0.483, AgNO3 0.326 mg/mL)
  surviving fraction: 78.7 ± 8.3%
PANC-1 [3]; PANC-1, 24h + 24h, dil. 1000x (stocks: diclofenac 0.918, PTA 0.483, AgNO3 0.326 mg/mL)
  surviving fraction: 85.2 ± 9.5%
PANC-1 [3]; PANC-1, 72h + 24h, dil. 10 000x (stocks: diclofenac 0.918, PTA 0.483, AgNO3 0.326 mg/mL)
  surviving fraction: 98.9 ± 8.9%
PANC-1 [3]; PANC-1, 72h + 24h, dil. 100x (stocks: diclofenac 0.918, PTA 0.483, AgNO3 0.326 mg/mL)
  surviving fraction: 70.8 ± 6.7%
PANC-1 [3]; PANC-1, 72h + 24h, dil. 1000x (stocks: diclofenac 0.918, PTA 0.483, AgNO3 0.326 mg/mL)
  surviving fraction: 83.4 ± 5.1%
MCF-7; MCF-7, 6h + 24h, dil. 10 000x (stocks: diclofenac 0.918, PTA 0.483, AgNO3 0.326 mg/mL)
  surviving fraction: 88.6 ± 7.5%
MCF-7; MCF-7, 6h + 24h, dil. 100x (stocks: diclofenac 0.918, PTA 0.483, AgNO3 0.326 mg/mL)
  surviving fraction: 78.6 ± 13.1%
MCF-7; MCF-7, 6h + 24h, dil. 1000x (stocks: diclofenac 0.918, PTA 0.483, AgNO3 0.326 mg/mL)
  surviving fraction: 89.6 ± 4.8%
MCF-7; MCF-7, 24h + 24h, dil. 10 000x (stocks: diclofenac 0.918, PTA 0.483, AgNO3 0.326 mg/mL)
  surviving fraction: 100.2 ± 6.6%
MCF-7; MCF-7, 24h + 24h, dil. 100x (stocks: diclofenac 0.918, PTA 0.483, AgNO3 0.326 mg/mL)
  surviving fraction: 70.9 ± 8.8%
MCF-7; MCF-7, 24h + 24h, dil. 1000x (stocks: diclofenac 0.918, PTA 0.483, AgNO3 0.326 mg/mL)
  surviving fraction: 82.7 ± 11.5%
MCF-7; MCF-7, 72h + 24h, dil. 10 000x (stocks: diclofenac 0.918, PTA 0.483, AgNO3 0.326 mg/mL)
  surviving fraction: 102.5 ± 6.0%
MCF-7; MCF-7, 72h + 24h, dil. 100x (stocks: diclofenac 0.918, PTA 0.483, AgNO3 0.326 mg/mL)
  surviving fraction: 84.7 ± 8.9%
MCF-7; MCF-7, 72h + 24h, dil. 1000x (stocks: diclofenac 0.918, PTA 0.483, AgNO3 0.326 mg/mL)
  surviving fraction: 88.6 ± 7.9%
A549 [4]; A549, 6h + 24h, dil. 10 000x (stocks: diclofenac 0.918, PTA 0.483, AgNO3 0.326 mg/mL)
  surviving fraction: 96.8 ± 10.8%
A549 [4]; A549, 6h + 24h, dil. 100x (stocks: diclofenac 0.918, PTA 0.483, AgNO3 0.326 mg/mL)
  surviving fraction: 77.5 ± 9.8%
A549 [4]; A549, 6h + 24h, dil. 1000x (stocks: diclofenac 0.918, PTA 0.483, AgNO3 0.326 mg/mL)
  surviving fraction: 82.4 ± 12.9%
A549 [4]; A549, 24h + 24h, dil. 10 000x (stocks: diclofenac 0.918, PTA 0.483, AgNO3 0.326 mg/mL)
  surviving fraction: 98.6 ± 5.9%
A549 [4]; A549, 24h + 24h, dil. 100x (stocks: diclofenac 0.918, PTA 0.483, AgNO3 0.326 mg/mL)
  surviving fraction: 77.2 ± 12.8%
A549 [4]; A549, 24h + 24h, dil. 1000x (stocks: diclofenac 0.918, PTA 0.483, AgNO3 0.326 mg/mL)
  surviving fraction: 88.2 ± 8.7%
A549 [4]; A549, 72h + 24h, dil. 10 000x (stocks: diclofenac 0.918, PTA 0.483, AgNO3 0.326 mg/mL)
  surviving fraction: 92.7 ± 8.6%
A549 [4]; A549, 72h + 24h, dil. 100x (stocks: diclofenac 0.918, PTA 0.483, AgNO3 0.326 mg/mL)
  surviving fraction: 67.3 ± 8.6%
A549 [4]; A549, 72h + 24h, dil. 1000x (stocks: diclofenac 0.918, PTA 0.483, AgNO3 0.326 mg/mL)
  surviving fraction: 79.8 ± 7.5%
HaCat [5]; 6h + 24h, dil. 10 000x (stocks: diclofenac 0.918, PTA 0.483, AgNO3 0.326 mg/mL)
  surviving fraction: 109.7 ± 6.3%
HaCat [5]; 6h + 24h, dil. 100x (stocks: diclofenac 0.918, PTA 0.483, AgNO3 0.326 mg/mL)
  surviving fraction: 99.7 ± 4.9%
HaCat [5]; 24h + 24h, dil. 10 000x (stocks: diclofenac 0.918, PTA 0.483, AgNO3 0.326 mg/mL)
  surviving fraction: 98.1 ± 12.1%
HaCat [5]; 24h + 24h, dil. 100x (stocks: diclofenac 0.918, PTA 0.483, AgNO3 0.326 mg/mL)
  surviving fraction: 92.2 ± 5.3%
HaCat [5]; 24h + 24h, dil. 1000x (stocks: diclofenac 0.918, PTA 0.483, AgNO3 0.326 mg/mL)
  surviving fraction: 96.7 ± 9.7%
HaCat [5]; 72h + 24h, dil. 10 000x (stocks: diclofenac 0.918, PTA 0.483, AgNO3 0.326 mg/mL)
  surviving fraction: 100.6 ± 8.1%
HaCat [5]; 72h + 24h, dil. 100x (stocks: diclofenac 0.918, PTA 0.483, AgNO3 0.326 mg/mL)
  surviving fraction: 91.2 ± 6.5%
HaCat [5]; 72h + 24h, dil. 1000x (stocks: diclofenac 0.918, PTA 0.483, AgNO3 0.326 mg/mL)
  surviving fraction: 98.2 ± 8.4%
PANC-1 cells [6]
  change of mitochondrial membrane potential (570/530 nm ratio of JC-10 fluorescence intensity): significant decrease
pBR322 plasmid
  degradation of plasmid DNA: no degradation of DNA
DU-145 [7]
  IC50: 1.23 ± 0.0219 mM
PANC-1 [8]
  IC50: 1.29 ± 0.0526 mM
MRC5
  IC50: 867 ± 18.3 µM
MCF7
  IC50: 1.471 ± 0.0144 mM
A549 [9]
  IC50: 1.17 ± 0.0147 mM
HaCat [10]
  IC50: 826 ± 8.76 µM
